#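 Cells were grown in 96-well plates and exposed to each compound for 48 hours at five concentrations; endpoints were interpolated linearly between bracketing concentrations, or set to the highest concentration if not reached. The concentration for 50% growth inhibition is given as GI50. TGI: concentration producing complete growth inhibition.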
# How the values were obtained:
# Test in all cases: growth of human tumour cells (NCI), 48 h
# UACC-257 melanoma = test system: UACC-257 melanoma
# T-47D breast = test system: T-47D breast
# SR leukemia = test system: SR leukemia
# DU-145 prostate = test system: DU-145 prostate
# SK-MEL-2 melanoma = test system: SK-MEL-2 melanoma
# BT-549 breast = test system: BT-549 breast
# SK-MEL-5 melanoma = test system: SK-MEL-5 melanoma
# MDA-MB-435 = test system: MDA-MB-435
# NCI-H226 lung = test system: NCI-H226 lung
# SF-539 CNS = test system: SF-539 CNS
# NCI-H23 lung = test system: NCI-H23 lung
# HS 578T breast = test system: HS 578T breast
# OVCAR-5 ovarian = test system: OVCAR-5 ovarian
# SNB-19 CNS = test system: SNB-19 CNS
# MOLT-4 leukemia = test system: MOLT-4 leukemia
# HCC-2998 colon = test system: HCC-2998 colon
# HT29 colon = test system: HT29 colon
# HOP-62 NSCLC = test system: HOP-62 NSCLC
# SF-268 CNS = test system: SF-268 CNS
# SW-620 colon = test system: SW-620 colon
# SF-295 CNS = test system: SF-295 CNS
# A498 renal = test system: A498 renal
# UACC-62 melanoma = test system: UACC-62 melanoma
# MDA-MB-231 breast = test system: MDA-MB-231 breast
# HL-60(TB) leukemia = test system: HL-60(TB) leukemia
# SK-OV-3 ovarian = test system: SK-OV-3 ovarian
# EKVX NSCLC = test system: EKVX NSCLC
# OVCAR-4 ovarian = test system: OVCAR-4 ovarian
# NCI-H522 lung = test system: NCI-H522 lung
# IGROV1 ovarian = test system: IGROV1 ovarian
# OVCAR-3 ovarian = test system: OVCAR-3 ovarian
# NCI/ADR-RES ovarian = test system: NCI/ADR-RES ovarian
# HOP-92 NSCLC = test system: HOP-92 NSCLC
# CCRF-CEM leukemia = test system: CCRF-CEM leukemia
# A549 NSCLC = test system: A549 NSCLC
# M14 melanoma = test system: M14 melanoma
# CAKI-1 renal = test system: CAKI-1 renal
# RXF 393 renal = test system: RXF 393 renal
# KM12 colon = test system: KM12 colon
# LOX IMVI melanoma = test system: LOX IMVI melanoma
# MALME-3M melanoma = test system: MALME-3M melanoma
# SNB-75 CNS = test system: SNB-75 CNS
# SK-MEL-28 melanoma = test system: SK-MEL-28 melanoma
# COLO 205 colon = test system: COLO 205 colon
# SN12C renal = test system: SN12C renal
# ACHN renal = test system: ACHN renal
# UO-31 renal = test system: UO-31 renal
# U251 CNS = test system: U251 CNS
# 786-0 renal = test system: 786-0 renal
# OVCAR-8 ovarian = test system: OVCAR-8 ovarian
# MCF7 breast = test system: MCF7 breast
# HCT-116 colon = test system: HCT-116 colon
# RPMI-8226 leukemia = test system: RPMI-8226 leukemia
# PC-3 prostate = test system: PC-3 prostate
# TK-10 renal = test system: TK-10 renal
# NCI-H460 lung = test system: NCI-H460 lung
# K-562 leukemia = test system: K-562 leukemia
# HCT-15 colon = test system: HCT-15 colon
compound,measurement,setting,value
CS(=O)(=O)Nc1cc(-c2ccc3ncnc(Nc4c(Cl)ccc5c4OCO5)c3c2)cnc1Cl,GI50,UACC-257 melanoma,208 nM
same,TGI,UACC-257 melanoma,3320 nM
same,GI50,T-47D breast,24.3 nM
same,TGI,T-47D breast,606 nM
same,GI50,SR leukemia,325 nM
same,TGI,SR leukemia,3410 nM
same,GI50,DU-145 prostate,240 nM
same,TGI,DU-145 prostate,5010 nM
same,GI50,SK-MEL-2 melanoma,232 nM
same,TGI,SK-MEL-2 melanoma,1040 nM
same,GI50,BT-549 breast,132 nM
same,TGI,BT-549 breast,1040 nM
same,GI50,SK-MEL-5 melanoma,191 nM
same,TGI,SK-MEL-5 melanoma,465 nM
same,GI50,MDA-MB-435,251 nM
same,TGI,MDA-MB-435,1630 nM
same,GI50,NCI-H226 lung,309 nM
same,TGI,NCI-H226 lung,3540 nM
same,GI50,SF-539 CNS,208 nM
same,TGI,SF-539 CNS,988 nM
same,GI50,NCI-H23 lung,250 nM
same,TGI,NCI-H23 lung,4000 nM
same,GI50,HS 578T breast,47.7 nM
same,TGI,HS 578T breast,521 nM
same,GI50,OVCAR-5 ovarian,164 nM
same,TGI,OVCAR-5 ovarian,2100 nM
same,GI50,SNB-19 CNS,244 nM
same,TGI,SNB-19 CNS,3420 nM
same,GI50,MOLT-4 leukemia,165 nM
same,TGI,MOLT-4 leukemia,760 nM
same,GI50,HCC-2998 colon,262 nM
same,TGI,HCC-2998 colon,1510 nM
same,GI50,HT29 colon,238 nM
same,TGI,HT29 colon,3930 nM
same,GI50,HOP-62 NSCLC,156 nM
same,TGI,HOP-62 NSCLC,3530 nM
same,GI50,SF-268 CNS,119 nM
same,TGI,SF-268 CNS,1480 nM
same,GI50,SW-620 colon,327 nM
same,TGI,SW-620 colon,2990 nM
same,GI50,SF-295 CNS,171 nM
same,TGI,SF-295 CNS,1100 nM
same,GI50,A498 renal,< 13.5 nM
same,TGI,A498 renal,127 nM
same,GI50,UACC-62 melanoma,73.2 nM
same,TGI,UACC-62 melanoma,785 nM
same,GI50,MDA-MB-231 breast,246 nM
same,TGI,MDA-MB-231 breast,2350 nM
same,GI50,HL-60(TB) leukemia,159 nM
same,TGI,HL-60(TB) leukemia,920 nM
same,GI50,SK-OV-3 ovarian,131 nM
same,TGI,SK-OV-3 ovarian,759 nM
same,GI50,EKVX NSCLC,116 nM
same,TGI,EKVX NSCLC,824 nM
same,GI50,OVCAR-4 ovarian,348 nM
same,TGI,OVCAR-4 ovarian,4450 nM
same,GI50,NCI-H522 lung,224 nM
same,TGI,NCI-H522 lung,2560 nM
same,GI50,IGROV1 ovarian,33.2 nM
same,TGI,IGROV1 ovarian,209 nM
same,GI50,OVCAR-3 ovarian,127 nM
same,TGI,OVCAR-3 ovarian,925 nM
same,GI50,NCI/ADR-RES ovarian,477 nM
same,TGI,NCI/ADR-RES ovarian,4190 nM
same,GI50,HOP-92 NSCLC,59.7 nM
same,TGI,HOP-92 NSCLC,639 nM
same,GI50,CCRF-CEM leukemia,150 nM
same,TGI,CCRF-CEM leukemia,6840 nM
same,GI50,A549 NSCLC,255 nM
same,TGI,A549 NSCLC,1940 nM
same,GI50,M14 melanoma,200 nM
same,TGI,M14 melanoma,1480 nM
same,GI50,CAKI-1 renal,53 nM
same,TGI,CAKI-1 renal,869 nM
same,GI50,RXF 393 renal,143 nM
same,TGI,RXF 393 renal,575 nM
same,GI50,KM12 colon,465 nM
same,TGI,KM12 colon,1870 nM
same,GI50,LOX IMVI melanoma,172 nM
same,TGI,LOX IMVI melanoma,1080 nM
same,GI50,MALME-3M melanoma,52.5 nM
same,TGI,MALME-3M melanoma,515 nM
same,TGI,SNB-75 CNS,97.2 nM
same,GI50,SK-MEL-28 melanoma,120 nM
same,TGI,SK-MEL-28 melanoma,1030 nM
same,GI50,COLO 205 colon,263 nM
same,TGI,COLO 205 colon,1350 nM
same,GI50,SN12C renal,202 nM
same,TGI,SN12C renal,> 100000 nM
same,GI50,ACHN renal,186 nM
same,TGI,ACHN renal,> 48100 nM
same,GI50,UO-31 renal,40.3 nM
same,TGI,UO-31 renal,938 nM
same,GI50,U251 CNS,331 nM
same,TGI,U251 CNS,2630 nM
same,GI50,786-0 renal,233 nM
same,TGI,786-0 renal,6460 nM
same,GI50,OVCAR-8 ovarian,387 nM
same,GI50,MCF7 breast,52.4 nM
same,TGI,MCF7 breast,1470 nM
same,GI50,HCT-116 colon,269 nM
same,TGI,HCT-116 colon,1970 nM
same,GI50,RPMI-8226 leukemia,148 nM
same,TGI,RPMI-8226 leukemia,566 nM
same,GI50,PC-3 prostate,178 nM
same,TGI,PC-3 prostate,1770 nM
same,GI50,TK-10 renal,47 nM
same,TGI,TK-10 renal,888 nM
same,GI50,NCI-H460 lung,236 nM
same,TGI,NCI-H460 lung,4760 nM
same,GI50,K-562 leukemia,484 nM
same,TGI,K-562 leukemia,> 48400 nM
same,GI50,HCT-15 colon,204 nM
same,TGI,HCT-15 colon,1490 nM
